The results in this text go back to patent US20260250290A1 (BRISTOL-MYERS SQUIBB COMPANY, priority 2023, published 2026).

The target of the assay is T1, full length SGK1 (Homo sapiens, UniProt O00141).
T1 construct: 125 μM full length SGK1 (Life Technologies Part #PR7358A); purchased Life Technologies PR7358A
T1 sequence (O00141 1-431): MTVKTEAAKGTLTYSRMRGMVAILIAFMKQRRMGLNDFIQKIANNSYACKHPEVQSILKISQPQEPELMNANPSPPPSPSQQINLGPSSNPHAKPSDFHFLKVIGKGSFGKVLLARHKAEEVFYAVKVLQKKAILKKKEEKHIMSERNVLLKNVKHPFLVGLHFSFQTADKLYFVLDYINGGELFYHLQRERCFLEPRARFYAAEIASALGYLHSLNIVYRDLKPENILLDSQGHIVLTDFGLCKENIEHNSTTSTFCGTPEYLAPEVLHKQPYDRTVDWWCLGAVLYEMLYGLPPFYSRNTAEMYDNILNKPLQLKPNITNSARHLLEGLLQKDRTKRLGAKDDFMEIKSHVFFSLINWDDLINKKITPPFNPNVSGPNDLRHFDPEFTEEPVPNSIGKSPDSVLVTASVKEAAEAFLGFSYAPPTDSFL
As to the kind of experiment: SGK1 inhibition Assay A (Caliper LabChip electrophoretic separation of fluorescent peptide substrate and phosphorylated product). It is filed as biochemical. Particulars: Assay A; 20 μM ATP, 40 min incubation; read-out: SGK1 IC50.

Where a name gives a salt, the structure may show the parent alone.

On to `CC(=O)N1CC=C(c2cc(N3CCC[C@@H](NC(=O)c4cccc(N[C@@H]5CCN(C)C5)n4)C3)c3c(N)ncnn23)C1` [Example 760, N—((R)-1-(7-(1-acetyl-2,5-dihydro-1H-pyrrol-3-yl)-4-aminopyrrolo[2,1-f][1,2,4]triazin-5-yl)piperidin-3-yl)-6-(((R)-1-methylpyrrolidin-3-yl)amino)picolinamide], for which the IC50 (as a rule, the concentration needed to halve the response being measured) is 0.023 µM. The value for `CC(=O)N1CC=C(c2cc(N3CCC[C@@H](NC(=O)c4cccc(NCCN(C)C)n4)C3)c3c(N)ncnn23)C1` [Example 761, (R)-N-(1-(7-(1-acetyl-2,5-dihydro-1H-pyrrol-3-yl)-4-aminopyrrolo[2,1-f][1,2,4]triazin-5-yl)piperidin-3-yl)-6-((2-(dimethylamino)ethyl)amino)picolinamide] was 0.007 µM; that for `CC(=O)N1CC=C(c2cc(N3CCC[C@@H](NC(=O)c4cccc(NCCN5CCCC5)n4)C3)c3c(N)ncnn23)C1` [Example 763, (R)-N-(1-(7-(1-acetyl-2,5-dihydro-1H-pyrrol-3-yl)-4-aminopyrrolo[2,1-f][1,2,4]triazin-5-yl)piperidin-3-yl)-6-((2-(pyrrolidin-1-yl)ethyl)amino)picolinamide] was 0.01 µM.

Regarding `CC(=O)N1CC=C(c2cc(N3CCC[C@@H](NC(=O)c4cccc(N5CC(S(C)(=O)=O)C5)n4)C3)c3c(N)ncnn23)C1` [Example 764, (R)-N-(1-(7-(1-acetyl-2,5-dihydro-1H-pyrrol-3-yl)-4-aminopyrrolo[2,1-f][1,2,4]triazin-5-yl)piperidin-3-yl)-6-(3-(methylsulfonyl)azetidin-1-yl)picolinamide], the IC50 was found to be 0.062 µM. The value for `COCCNc1cccc(C(=O)N[C@@H]2CCCN(c3cc(C4=CCN(C(C)=O)C4)n4ncnc(N)c34)C2)n1` [Example 765, (R)-N-(1-(7-(1-acetyl-2,5-dihydro-1H-pyrrol-3-yl)-4-aminopyrrolo[2,1-f][1,2,4]triazin-5-yl)piperidin-3-yl)-6-((2-methoxyethyl)amino)picolinamide] was 0.2 µM; that for `CC(=O)N1CC=C(c2cc(N3CCC[C@@H](NC(=O)c4cccc(NC5CN(C)C5)n4)C3)c3c(N)ncnn23)C1` [Example 766, (R)-N-(1-(7-(1-acetyl-2,5-dihydro-1H-pyrrol-3-yl)-4-aminopyrrolo[2,1-f][1,2,4]triazin-5-yl)piperidin-3-yl)-6-((1-methylazetidin-3-yl)amino)picolinamide] was 0.679 µM.

For `CC(=O)N1CC=C(c2cc(N3CCC[C@@H](NC(=O)c4cccc(NCCS(C)(=O)=O)n4)C3)c3c(N)ncnn23)C1` [Example 767, (R)-N-(1-(7-(1-acetyl-2,5-dihydro-1H-pyrrol-3-yl)-4-aminopyrrolo[2,1-f][1,2,4]triazin-5-yl)piperidin-3-yl)-6-((2-(methylsulfonyl)ethyl)amino)picolinamide], the IC50 came out at 0.024 µM. To `CC(=O)N1CC=C(c2cc(N3CCC[C@@H](NC(=O)c4cccc(NC5CC(=O)N(C)C5)n4)C3)c3c(N)ncnn23)C1` (stereo partly drawn) [Example 768, N-((R)-1-(7-(1-acetyl-2,5-dihydro-1H-pyrrol-3-yl)-4-aminopyrrolo[2,1-f][1,2,4]triazin-5-yl)piperidin-3-yl)-6-((1-methyl-5-oxopyrrolidin-3-yl)amino)picolinamide] belongs 0.046 µM; to `CC(=O)N1CC=C(c2cc(N3CCC[C@@H](NC(=O)c4cccc(N5CCN6CCCC6C5)n4)C3)c3c(N)ncnn23)C1` (stereo partly drawn) [Example 769, N-((R)-1-(7-(1-acetyl-2,5-dihydro-1H-pyrrol-3-yl)-4-aminopyrrolo[2,1-f][1,2,4]triazin-5-yl)piperidin-3-yl)-6-(hexahydropyrrolo[1,2-a]pyrazin-2(1H)-yl)picolinamide], 0.002 µM. The value for `CC(=O)N1CC=C(c2cc(N3CCC[C@@H](NC(=O)c4cccc(N5CC[C@@H](O)C5)n4)C3)c3c(N)ncnn23)C1` [Example 770, N-((R)-1-(7-(1-acetyl-2,5-dihydro-1H-pyrrol-3-yl)-4-aminopyrrolo[2,1-f][1,2,4]triazin-5-yl)piperidin-3-yl)-6-((R)-3-hydroxypyrrolidin-1-yl)picolinamide] was 0.007 µM. To `CC(=O)N1CC=C(c2cc(N3CCC[C@@H](NC(=O)c4cccc(N5CC(C)(O)C5)n4)C3)c3c(N)ncnn23)C1` [Example 771, (R)-N-(1-(7-(1-acetyl-2,5-dihydro-1H-pyrrol-3-yl)-4-aminopyrrolo[2,1-f][1,2,4]triazin-5-yl)piperidin-3-yl)-6-(3-hydroxy-3-methylazetidin-1-yl)picolinamide] belongs 0.017 µM. Consider `CC(=O)N1CC=C(c2cc(N3CCC[C@@H](NC(=O)c4cccc(N5CCC(C)(O)CC5)n4)C3)c3c(N)ncnn23)C1` [Example 772, (R)-N-(1-(7-(1-acetyl-2,5-dihydro-1H-pyrrol-3-yl)-4-aminopyrrolo[2,1-f][1,2,4]triazin-5-yl)piperidin-3-yl)-6-(4-hydroxy-4-methylpiperidin-1-yl)picolinamide], for which the IC50 stood at 0.072 µM.

Consider `CC(=O)N1CC=C(c2cc(N3CCC[C@@H](NC(=O)c4cccc(N5CCNC(C)(C)C5)n4)C3)c3c(N)ncnn23)C1` [Example 773, (R)-N-(1-(7-(1-acetyl-2,5-dihydro-1H-pyrrol-3-yl)-4-aminopyrrolo[2,1-f][1,2,4]triazin-5-yl)piperidin-3-yl)-6-(3,3-dimethylpiperazin-1-yl)picolinamide], for which the IC50 was determined as 0.001 µM.

As to `CC(=O)N1CC=C(c2cc(N3CCC[C@@H](NC(=O)c4cccc(N5C[C@@H](C)N[C@@H](C)C5)n4)C3)c3c(N)ncnn23)C1` [Example 774, N-((R)-1-(7-(1-acetyl-2,5-dihydro-1H-pyrrol-3-yl)-4-aminopyrrolo[2,1-f][1,2,4]triazin-5-yl)piperidin-3-yl)-6-((3S,5R)-3,5-dimethylpiperazin-1-yl)picolinamide], the IC50 was 0.001 µM. `CC(=O)N1CC=C(c2cc(N3CCC[C@@H](NC(=O)c4cccc(N5CC(=O)NC(C)C5)n4)C3)c3c(N)ncnn23)C1` (stereo partly drawn) [Example 775, N-((R)-1-(7-(1-acetyl-2,5-dihydro-1H-pyrrol-3-yl)-4-aminopyrrolo[2,1-f][1,2,4]triazin-5-yl)piperidin-3-yl)-6-(3-methyl-5-oxopiperazin-1-yl)picolinamide, 2 TFA]: the IC50 is 0.009 µM. The value for `CC(=O)N1CC=C(c2cc(N3CCC[C@@H](NC(=O)c4cccc(N5CCNC(C(F)(F)F)C5)n4)C3)c3c(N)ncnn23)C1` (stereo partly drawn) [Example 776, N-((R)-1-(7-(1-acetyl-2,5-dihydro-1H-pyrrol-3-yl)-4-aminopyrrolo[2,1-f][1,2,4]triazin-5-yl)piperidin-3-yl)-6-(3-(trifluoromethyl)piperazin-1-yl)picolinamide] was 0.005 µM.

Consider `CC(=O)N1CC=C(c2cc(N3CCC[C@@H](NC(=O)c4cccc(N5CCN(C)C(C)C5)n4)C3)c3c(N)ncnn23)C1` (stereo partly drawn) [Example 777, N-((R)-1-(7-(1-acetyl-2,5-dihydro-1H-pyrrol-3-yl)-4-aminopyrrolo[2,1-f][1,2,4]triazin-5-yl)piperidin-3-yl)-6-(3,4-dimethylpiperazin-1-yl)picolinamide], for which the IC50 is 0.044 µM. The value for `CNc1cccc(C(=O)N[C@@H]2CCCN(c3cc(C4=CCN(C(C)=O)C4)n4ncnc(N)c34)C2)n1` [Example 778, (R)-N-(1-(7-(1-acetyl-2,5-dihydro-1H-pyrrol-3-yl)-4-aminopyrrolo[2,1-f][1,2,4]triazin-5-yl)piperidin-3-yl)-6-(methylamino)picolinamide] was 0.021 µM; that for `CC(=O)N1CC=C(c2cc(N3CCC[C@@H](NC(=O)c4cccc(N5CC[C@H](O)C5)n4)C3)c3c(N)ncnn23)C1` [Example 779, N-((R)-1-(7-(1-acetyl-2,5-dihydro-1H-pyrrol-3-yl)-4-aminopyrrolo[2,1-f][1,2,4]triazin-5-yl)piperidin-3-yl)-6-((S)-3-hydroxypyrrolidin-1-yl)picolinamide] was 0.033 µM; that for `CC(=O)N1CC=C(c2cc(N3CCC[C@@H](NC(=O)c4cccc(NCC5CN(C)C5)n4)C3)c3c(N)ncnn23)C1` [Example 780, (R)-N-(1-(7-(1-acetyl-2,5-dihydro-1H-pyrrol-3-yl)-4-aminopyrrolo[2,1-f][1,2,4]triazin-5-yl)piperidin-3-yl)-6-(((1-methylazetidin-3-yl)methyl)amino)picolinamide] was 0.025 µM.

Regarding `CC(=O)N1CC=C(c2cc(N3CCC[C@@H](NC(=O)c4cccc(N5CC6(C5)CN(C(C)C)C6)n4)C3)c3c(N)ncnn23)C1` [Example 781, (R)-N-(1-(7-(1-acetyl-2,5-dihydro-1H-pyrrol-3-yl)-4-aminopyrrolo[2,1-f][1,2,4]triazin-5-yl)piperidin-3-yl)-6-(6-isopropyl-2,6-diazaspiro[3.3]heptan-2-yl)picolinamide], the IC50 stood at 0.005 µM. The value for `CC(=O)N1CC=C(c2cc(N3CCC[C@@H](NC(=O)c4cccc(N5CC6(CN(C)C6)C5)n4)C3)c3c(N)ncnn23)C1` [Example 784, (R)-N-(1-(7-(1-acetyl-2,5-dihydro-1H-pyrrol-3-yl)-4-aminopyrrolo[2,1-f][1,2,4]triazin-5-yl)piperidin-3-yl)-6-(6-methyl-2,6-diazaspiro[3.3]heptan-2-yl)picolinamide] was 0.02 µM; that for `CN1CCN(c2cccc(C(=O)N[C@@H]3CCCN(c4cc(-c5ccc(C#N)nc5)n5ncnc(N)c45)C3)n2)CC1` [Example 785, (R)—N-(1-(4-amino-7-(6-cyanopyridin-3-yl)pyrrolo[2,1-f][1,2,4]triazin-5-yl)piperidin-3-yl)-6-(4-methylpiperazin-1-yl)picolinamide] was 0.007 µM.
